Patent US9416141B2 (University of Washington through its Center for …, priority 2012, dated 2016)
Where a name gives a salt, the structure may show the parent alone.

Test system: hair cells
Test: Hair cell toxicity assay in zebrafish (neomycin-induced hair cell death, DASPEI staining of neuromasts)
Type: in vivo
Conditions: Danio rerio; for Emax at 25 µM: maximum observed @ 25 μM test compound; for Emax at 8.3 µM: maximum observed @ 8.3 μM test compound; for EC50: zebrafish larvae 5-7 dpf, 1 h pre-treatment, then 200 micromolar neomycin + test compound 30 min, read-out: HC50 (concentration that would produce 50% hair cell survival); for Emax at 2.8 µM: maximum observed @ 2.8 μM test compound
How it was run: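 Zebrafish larvae 5-7 dpf pre-treated 1 h with compound (0.010-25 μM), then 30 min with 200 μM neomycin plus compound. DASPEI stained 10 neuromasts per fish, scored 0-2 (total 0-20), normalised to vehicle controls as % hair cell survival. HC50 linearly interpolated if survival reached ≥50%; HCmax is maximum survival.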

[1] = 200 micromolar neomycin, read-out: Max HC Protection (HCmax, % hair cell survival)

SMILES | Emax at 25 µM [1] [%] | EC50 [nM] | Emax at 2.8 µM [1] [%] | other results
CCN1CCc2c(sc(NC(=O)Nc3ccc(Cl)cc3)c2C(=O)NC2COC2)C1 [Example 102, 2-[3-(4-Chlorophenyl)ureido]-6-ethyl-N-(oxetan-3-yl)-4,5,6,7-tetrahydrothieno[2,3-c]pyridine-3-carboxamide] | 22 |  |  | 
CCN1CCc2c(sc(NC(=O)Nc3ccc(OC)cc3)c2C(N)=O)C1 [Example 230, 6-ethyl-2-{[(4-methoxyphenyl)carbamoyl]amino}-4H,5H,6H,7H-thieno[2,3-c]pyridine-3-carboxamide] | 48 |  |  | 
CN1C2CCC1c1sc(NC(=O)Nc3ccc(Cl)cc3)c(C(N)=O)c1C2 (racemic) [Example 125, (+/−)-2-[3-(4-chlorophenyl)ureido)-9-methyl-5,6,7,8-tetrahydro-4H-5,8-epiminocyclohepta[b]thiophene-3-carboxamide hydrochloride] |  | < 1000 |  | Emax at 8.3 µM [1]: 99%
C[N+]1(C2CCOCC2)CCc2c(sc(NC(=O)Nc3ccc(Cl)cc3)c2C(N)=O)C1 (stereo not shown) [Example 143, 3-Carbamoyl-2-[3-(4-chlorophenyl)ureido]-6-methyl-6-(tetrahydro-2H-pyran-4-yl)-4,5,6,7-tetrahydrothieno[2,3-c]pyridin-6-ium iodide] | 96 | 1000 to 10000 |  | 
CC(C)C[N+]1(C)CCc2c(sc(NC(=O)Nc3ccc4ccccc4c3)c2C(N)=O)C1 (stereo not shown) [Example 175, 3-Carbamoyl-6-isobutyl-6-methyl-2-[3-(naphthalen-2-yl)ureido]-4,5,6,7-tetrahydrothieno[2,3-c]pyridin-6-ium iodide] | 111 | < 1000 |  | 
COC(=O)CCC[N+]1(C)CCc2c(sc(NC(=O)Nc3ccc(Cl)cc3)c2C(N)=O)C1 (stereo not shown) [Example 158, 3-Carbamoyl-2-[3-(4-chlorophenyl)ureido]-6-(4-methoxy-4-oxobutyl)-6-methyl-4,5,6,7-tetrahydrothieno[2,3-c]pyridin-6-ium iodide] | 80 | 1000 to 10000 |  | 
NC(=O)c1c(NC(=O)Nc2ccc(Cl)cc2)sc2c1CC1CCCCN1C2 (racemic) [Example 117, (+/−)-2-[3-(4-chlorophenyl)ureido]-4a,5,6,7,8,10-hexahydro-4H-thieno[3,2-b]quinolizine-3-carboxamide hydrochloride] | 78 | 1000 to 10000 |  | 
CC(C)(C)OC(=O)NCCCN1CCc2c(sc(NC(=O)Nc3ccc4ccccc4c3)c2C(N)=O)C1 [Example 206, tert-Butyl N-[3-(3-carbamoyl-2-{[(naphthalen-2-yl)carbamoyl]amino}-4H,5H,6H,7H-thieno[2,3-c]pyridin-6-yl)propyl]carbamate] |  | 1000 to 10000 |  | Emax at 6.3 µM (maximum observed @ 6.3 μM test compound, 200 micromolar neomycin, read-out: Max HC Protection (HCmax, % hair cell survival)): 88%
CC1(C[N+]2(C)CCc3c(sc(NC(=O)Nc4ccc(Cl)cc4)c3C(N)=O)C2)CC1 (stereo not shown) [Example 196, 3-Carbamoyl-2-[3-(4-chlorophenyl)ureido]-6-methyl-6-[(1-methylcyclopropyl)methyl]-4,5,6,7-tetrahydrothieno[2,3-c]pyridin-6-ium trifluoroacetate] |  | < 1000 | 85 | 
CCN1CCc2c(sc(NC(N)=O)c2C(N)=O)C1 [Example 107, 6-ethyl-2-ureido-4,5,6,7-tetrahydrothieno[2,3-c]pyridine-3-carboxamide hydrochloride] |  |  | 36 | 
CCN1CCc2c(sc(NC(=O)Nc3ccc(Cl)c4ccccc34)c2C(N)=O)C1 [Example 228, 2-{[(4-chloronaphthalen-1-yl)carbamoyl]amino}-6-ethyl-4H,5H,6H,7H-thieno[2,3-c]pyridine-3-carboxamide] | 93 | 1000 to 10000 |  | 
CN1CCC(N2CCc3c(sc(NC(=O)Nc4ccc(Cl)cc4)c3C(N)=O)C2)C1 (racemic) [Example 9, (+/−)-2-[3-(4-Chlorophenyl)ureido]-6-(1-methylpyrrolidin-3-yl)-4,5,6,7-tetrahydrothieno[2,3-c]pyridine-3-carboxamide dihydrochloride] | 82 | 1000 to 10000 |  | 
CC(C)(C)OC(=O)N1CCC(N2CCc3c(sc(NC(=O)Nc4ccc(Cl)cc4)c3C(N)=O)C2)C1 (stereo not shown) [Example 4, tert-Butyl 3-{3-carbamoyl-2-[3-(4-chlorophenyl)ureido]-4,5-dihydrothieno[2,3-c]pyridin-6(7H)-yl}pyrrolidine-1-carboxylate] |  | 1000 to 10000 |  | Emax at 8.3 µM [1]: 56%
CC(C1CCC1)N1CCc2c(sc(NC(=O)Nc3ccc(Cl)cc3)c2C(N)=O)C1 (racemic) [Example 47, (+/−)-2-[3-(4-chlorophenyl)ureido]-6-(1-cyclobutylethyl)-4,5,6,7-tetrahydrothieno[2,3-c]pyridine-3-carboxamide hydrochloride] |  | < 1000 | 73 | 
CCN1CCc2sc(NC(=O)Nc3ccc(Cl)cc3)c(C(N)=O)c2CC1 [Example 115, 2-[3-(4-Chlorophenyl)ureido]-6-ethyl-5,6,7,8-tetrahydro-4H-thieno[2,3-d]azepine-3-carboxamide hydrochloride] | 99 | 1000 to 10000 |  | 
NC(=O)c1c(NC(=O)Nc2ccc(Cl)cc2)sc2c1CCN(CCCNC(=O)CCc1cccc3ccccc13)C2 [Example 214, 2-{[(4-chlorophenyl)carbamoyl]amino}-6-{3-[3-(naphthalen-1-yl)propanamido]propyl}-4H,5H,6H,7H-thieno[2,3-c]pyridine-3-carboxamide] |  | < 1000 | 95 | 
CC1(C)Cc2c(sc(NC(=O)Nc3ccc(Cl)cc3)c2C(N)=O)C(C)(C)N1 [Example 90, 2-[3-(4-Chlorophenyl)ureido]-5,5,7,7-tetramethyl-4,5,6,7-tetrahydrothieno[2,3-c]pyridine-3-carboxamide hydrochloride] |  | 1000 to 10000 |  | Emax at 8.3 µM [1]: 99%
CC(C1CCC1)[N+]1(C)CCc2c(sc(NC(=O)Nc3ccc(Cl)cc3)c2C(N)=O)C1 (racemic) [Example 203, (+/−)-3-Carbamoyl-2-[3-(4-chlorophenyl)ureido]-6-(1-cyclobutylethyl)-6-methyl-4,5,6,7-tetrahydrothieno[2,3-c]pyridin-6-ium chloride] |  | < 1000 | 75 | 
CCN1CCc2c(sc(NC(=O)Nc3cccnc3)c2C(N)=O)C1 [Example 69, 6-Ethyl-2-[3-(pyridin-3-yl)ureido]-4,5,6,7-tetrahydrothieno[2,3-c]pyridine-3-carboxamide dihydrochloride] | 12 |  |  | 
CCN1CCc2c(sc(NC(=O)Nc3ccc(I)cc3)c2C(N)=O)C1 [Example 224, 6-ethyl-2-{[(4-iodophenyl)carbamoyl]amino}-4H,5H,6H,7H-thieno[2,3-c]pyridine-3-carboxamide] |  | 1000 to 10000 |  | Emax at 12.5 µM (maximum observed @ 12.5 μM test compound, 200 micromolar neomycin, read-out: Max HC Protection (HCmax, % hair cell survival)): 94%
CN1C2CCC1c1sc(NC(=O)Nc3ccc(Cl)cc3)c(C(N)=O)c1C2 (single isomer, unassigned; (-)) [Example 127, (−)-2-[3-(4-chlorophenyl)ureido]-9-methyl-5,6,7,8-tetrahydro-4H-5,8-epiminocyclohepta[b]thiophene-3-carboxamide hydrochloride] |  | 1000 to 10000 |  | 
NC(=O)c1c(NC(=O)Nc2ccc(Cl)cc2)sc2c1CCC(=O)C2 [Example 91, 2-[3-(4-Chlorophenyl)ureido]-6-oxo-4,5,6,7-tetrahydrobenzo[b]thiophene-3-carboxamide] |  |  |  | Emax at 0.9 µM (maximum observed @ 0.9 μM test compound, 200 micromolar neomycin, read-out: Max HC Protection (HCmax, % hair cell survival)): 15%
CC1(CN2CCc3c(sc(NC(=O)Nc4ccc(Cl)cc4)c3C(N)=O)C2)CC1 [Example 63, 2-[3-(4-Chlorophenyl)ureido]-6-[(1-methylcyclopropyl)methyl]-4,5,6,7-tetrahydrothieno[2,3-c]pyridine-3-carboxamide hydrochloride] |  | 1000 to 10000 | 54 | 
C[N+]1(C)CCc2c(sc(NC(=O)Nc3ccc(Cl)cc3)c2C(N)=O)C1 [Example 162, 3-Carbamoyl-2-[3-(4-chlorophenyl)ureido]-6,6-dimethyl-4,5,6,7-tetrahydrothieno[2,3-c]pyridin-6-ium trifluoroacetate] |  |  | 36 | 
C[N+]1(CC2CCC2)CCc2c(sc(NC(=O)Nc3ccc(Cl)c4ccccc34)c2C(N)=O)C1 (stereo not shown) [Example 182, 3-Carbamoyl-2-[3-(4-chloronaphthalen-1-yl)ureido]-6-(cyclobutylmethyl)-6-methyl-4,5,6,7-tetrahydrothieno[2,3-c]pyridin-6-ium chloride] |  | 1000 to 10000 |  | Emax at 83 µM (maximum observed @ 83 μM test compound, 200 micromolar neomycin, read-out: Max HC Protection (HCmax, % hair cell survival)): 76%
CC(C)(C)OC(=O)C[N+]1(C)CCc2c(sc(NC(=O)Nc3ccc(Cl)cc3)c2C(N)=O)C1 (stereo not shown) [Example 147, 6-(2-tert-Butoxy-2-oxoethyl)-3-carbamoyl-2-[3-(4-chlorophenyl)ureido]-6-methyl-4,5,6,7-tetrahydrothieno[2,3-c]pyridin-6-ium iodide] |  | < 1000 | 90 | 
CC(C)NC(=O)CCC[N+]1(C)CCc2c(sc(NC(=O)Nc3ccc(Cl)cc3)c2C(N)=O)C1 (stereo not shown) [Example 166, 3-Carbamoyl-2-[3-(4-chlorophenyl)ureido]-6-[4-(isopropylamino)-4-oxobutyl]-6-methyl-4,5,6,7-tetrahydrothieno[2,3-c]pyridin-6-ium trifluoroacetate] |  | 1000 to 10000 | 63 | 
NC(=O)c1c(NC(=O)Nc2ccc(Cl)cc2)sc2c1CCC(N1CCC1)C2 (stereo not shown) [Example 43, 6-(Azetidin-1-yl)-2-[3-(4-chlorophenyl)ureido]-4,5,6,7-tetrahydrobenzo[b]thiophene-3-carboxamide hydrochloride] | 93 | 1000 to 10000 |  | 
